Ki, CC50 and EC50 data for 25 molecules are collected here from ChEMBL document CHEMBL3751795, “Discovery of pyridyl-based inhibitors of Plasmodium falciparum N-myristoyltransferase” (Medchemcomm, 2015).

The target of series [1] is T1, Glycylpeptide N-tetradecanoyltransferase (Plasmodium falciparum (isolate 3D7), UniProt Q8ILW6).
T1 sequence (Q8ILW6 whole entry): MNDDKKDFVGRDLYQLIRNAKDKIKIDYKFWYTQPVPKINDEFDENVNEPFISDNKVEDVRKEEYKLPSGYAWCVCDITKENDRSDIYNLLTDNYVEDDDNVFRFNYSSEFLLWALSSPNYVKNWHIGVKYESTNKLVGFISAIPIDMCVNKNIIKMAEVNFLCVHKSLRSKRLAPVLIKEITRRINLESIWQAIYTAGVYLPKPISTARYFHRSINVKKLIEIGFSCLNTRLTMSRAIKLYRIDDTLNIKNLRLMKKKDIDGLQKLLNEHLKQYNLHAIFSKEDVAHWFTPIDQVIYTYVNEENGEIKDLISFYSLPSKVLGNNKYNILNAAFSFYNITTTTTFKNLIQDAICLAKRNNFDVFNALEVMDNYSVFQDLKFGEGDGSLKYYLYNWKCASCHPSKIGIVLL
Particulars: read-out: Ki(app).

Series [2] in a line: Cytotoxicity against human HepG2 cells after 48 hrs by MTS assay. Particulars: read-out: LD50. The series is classed as cell-based. In general terms: Formazan colour is commonly taken as a measure of viable cells.
Series [3] addresses T2, Glycylpeptide N-tetradecanoyltransferase 1 (Homo sapiens, UniProt P30419).
T2 sequence (P30419 whole entry): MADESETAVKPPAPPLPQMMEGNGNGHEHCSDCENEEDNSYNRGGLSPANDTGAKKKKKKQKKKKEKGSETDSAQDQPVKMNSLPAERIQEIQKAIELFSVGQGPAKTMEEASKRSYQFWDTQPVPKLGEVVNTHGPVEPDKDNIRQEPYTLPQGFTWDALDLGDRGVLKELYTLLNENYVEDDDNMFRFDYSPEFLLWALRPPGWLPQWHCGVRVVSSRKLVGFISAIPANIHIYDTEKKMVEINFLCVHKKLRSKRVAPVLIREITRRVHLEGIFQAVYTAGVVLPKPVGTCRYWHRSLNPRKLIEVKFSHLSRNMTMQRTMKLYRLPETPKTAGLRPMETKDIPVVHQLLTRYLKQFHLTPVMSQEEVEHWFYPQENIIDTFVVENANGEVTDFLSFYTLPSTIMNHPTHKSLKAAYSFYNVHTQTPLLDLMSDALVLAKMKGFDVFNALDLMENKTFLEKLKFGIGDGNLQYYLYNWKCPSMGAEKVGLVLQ
Description: Inhibition of human NMT1 by 7-diethylamine-3-(4'maleimidylphenyl)-4-methylcoumarin based fluorescence assay

In series [4] the test system is Plasmodium falciparum. The series can be described thus: Antiparasitic activity against Plasmodium falciparum 3D7 trophozoites infected in RBC assessed as reduction in cell viability incubated for 96 hrs SyBr green assay. The settings on record: 3D7, 96 h.

The structures appear in SMILES notation.

For `Cc1ccc(-c2nc(Cc3ccccc3)no2)c(OC2CCNCC2)c1`, in series [1], the Ki amounted to 620 nM.

Turning to `Fc1cccc(-c2nc(Cc3ccccc3)no2)c1OC1CCNCC1`, in series [1], the Ki was found to be 1500 nM.

Take `Cc1nn(C)c(C)c1Cc1noc(-c2cccnc2OC2CCNCC2)n1`: the Ki in series [1] is 28 nM. Also, the CC50 at 48 h in series [2] is over 100000 nM.

For the molecule `Fc1cccc(OC2CCNCC2)c1-c1nc(Cc2ccccc2)no1`, in series [1], the Ki is 4800 nM.

Regarding `COc1cccc(Cc2noc(-c3ccc(Cl)cc3OC3CCNCC3)n2)c1`, the Ki in series [1] was 30 nM.

As to `Fc1ccc(-c2nc(Cc3ccccc3)no2)c(OC2CCNCC2)c1`, the Ki was determined as 220 nM in series [1] and 4900 nM in series [3].

For `Fc1ccc(OC2CCNCC2)c(-c2nc(Cc3ccccc3)no2)c1`, the figures for the Ki in series [1] and in series [3] were 240 nM and 1000 nM, respectively.

On to `Clc1ccc(-c2nc(Cc3ccccc3)no2)c(OC2CCNCC2)c1`, for which the Ki in series [1] is 290 nM.

Take `c1ccc(Cc2noc(-c3ncccc3OC3CCNCC3)n2)cc1`: the Ki in series [1] is 29000 nM.

Turning to `COc1cccc(Cc2noc(-c3cccnc3OC3CCNCC3)n2)c1`, the Ki in series [1] was 27 nM.

In the case of `COc1cccc(Cc2noc(-c3ccc(OC)cc3OC3CCNCC3)n2)c1`, the Ki in series [1] was 71 nM.

With `Cc1nn(C)c(C)c1Cc1noc(-c2cccnc2OC2CCN(C(C)C)CC2)n1`, the Ki in series [1] is 90 nM. Besides, the CC50 at 48 h in series [2] is over 100000 nM.

As for `COc1ccc(OC2CCNCC2)c(-c2nc(Cc3ccccc3)no2)c1`, the figures for the Ki in series [1] and in series [3] were 4600 nM and 2300 nM, respectively.

Consider `COc1cccc(Cc2noc(-c3ccccc3OC3CCNCC3)n2)c1`, for which the Ki in series [1] is 190 nM; in series [3], 1400 nM.

Take `c1ccc(Cc2noc(-c3cccnc3OC3CCNCC3)n2)cc1`: the Ki in series [1] came out at 140 nM; in series [3] it was 1700 nM.

Consider `Cc1ccc(OC2CCNCC2)c(-c2nc(Cc3ccccc3)no2)c1`, for which the Ki in series [1] amounted to 29000 nM.

For `COc1ccc(-c2nc(Cc3ccccc3)no2)c(OC2CCNCC2)c1`, the Ki worked out at 180 nM in series [1] and 1200 nM in series [3].

As for `COc1cccc(-c2nc(Cc3ccccc3)no2)c1OC1CCNCC1`, the Ki in series [1] came to 17000 nM.

For `Cc1cccc(-c2nc(Cc3ccccc3)no2)c1OC1CCNCC1`, the Ki in series [1] stood at 39000 nM.

As usually defined, the EC50 is the concentration needed to bring the measured effect to its halfway point. `c1cnc(OC2CCNCC2)c(-c2nc(Cc3cccc4ncccc34)no2)c1`: the Ki in series [1] was found to be 1.7 nM; in series [3] it was 24 nM. The CC50 at 48 h in series [2] worked out at 65000 nM. Further, the EC50 in series [4] was found to be 210 nM.

For `c1ccc(Cc2noc(-c3ccccc3OC3CCNCC3)n2)cc1`, the Ki in series [1] is 1400 nM.

Turning to `Clc1ccc(OC2CCNCC2)c(-c2nc(Cc3ccccc3)no2)c1`, the Ki in series [1] was found to be 520 nM.

In the case of `COc1cccc(Cc2noc(-c3ccc(F)cc3OC3CCNCC3)n2)c1`, the Ki in series [1] came out at 71 nM.

On to `Cc1nn(C)c(C)c1Cc1noc(-c2cccnc2OC2CCN(C)CC2)n1`, for which the Ki in series [1] is 570 nM. Also, in series [4], the EC50 is over 30000 nM.

Take `CCN1CCC(Oc2ncccc2-c2nc(Cc3c(C)nn(C)c3C)no2)CC1`: in series [1], the Ki was determined as 340 nM. In addition, the EC50 in series [4] was over 10000 nM.
